Values of other authors in patent US20100210792A1, “DRUG DELIVERY” (priority 2006, published 2010).

Details: Table 1 drug list

Row | SMILES | Hydrophobic
1 | Cc1nc2n(c(=O)c1CCN1CCC(c3noc4cc(F)ccc34)CC1)CCCC2 [Risperidone, 4-[2-[4-(6-fluorobenzo[d]isoxazol-3-yl)-1-piperidyl]ethyl]-3-methyl-2,6-diazabicyclo[4.4.0]deca-1,3-dien-5-one] | YES
2 | CC[C@H]1OC(=O)[C@H](C)[C@@H](O[C@H]2C[C@@](C)(OC)[C@@H](O)[C@H](C)O2)[C@H](C)[C@@H](O[C@@H]2O[C@H](C)C[C@H](N(C)C)[C@H]2O)[C@](C)(OC)C[C@@H](C)C(=O)[C@H](C)[C@@H](O)[C@]1(C)O [Clarithromycin] | YES
3 | CC(C)c1c(C(=O)Nc2ccccc2)c(-c2ccccc2)c(-c2ccc(F)cc2)n1CC[C@@H](O)C[C@@H](O)CC(=O)O [Atorvastatin] | YES
4 | CN[C@H]1CC[C@@H](c2ccc(Cl)c(Cl)c2)c2ccccc21 [Sertradine] | YES
5 | COc1ccc2nc([S@@+]([O-])Cc3ncc(C)c(OC)c3C)[nH]c2c1 [Esomeprazole] | YES
6 | OCCOCCN1CCN(C2=Nc3ccccc3Sc3ccccc32)CC1 [Quetiapine] | YES
7 | CC(C)c1nc(N(C)S(C)(=O)=O)nc(-c2ccc(F)cc2)c1/C=C/[C@@H](O)C[C@@H](O)CC(=O)O [Rosuvastatin] | YES
8 | Cc1c(OCC(F)(F)F)ccnc1C[S+]([O-])c1nc2ccccc2[nH]1 (centres unmarked) [Lansoprazole] | YES
